The values below come from US12703712B2, “Indenonaphthopyrans having trialkylsilyl and ethylenically unsaturated groups” (Transitions Optical, Ltd., priority 2021, dated 2026).

The nature of the series: Solubility evaluation in polymerizable polysiloxane-containing formulation. The series is classed as physicochemical. As to conditions: 0.06 g photochromic compound in 1.50 g polymerizable polysiloxane-containing formulation of Table 1; stirred 24 hours at room temperature; visual observation. On the procedure: A polymerizable polysiloxane-containing formulation was prepared by mixing together the ingredients and in the amounts as tabulated in the following Table 1.
The photochromic compounds of Comparative Examples CE-1 and CE-2, and Examples 4 and 5, prepared as described in Part-1, were each added to a polymerizable polysiloxane-containing formulation according to Table 1, to form Polymerizable Photochromic Compositions A, B, C, and D, as summarized in the following Table 2. The Polymerizable Photochromic Compositions were each stirred for 24 hours at room temperature after which the solubility of the photochromic compounds was determined by visual observation.
For the compound `C=C(C)C(=O)OCCOCCOCCOc1ccc(C2(c3ccccc3)C=Cc3c4c(c5cc(N6CCCCC6)c(OC)cc5c3O2)-c2ccc(-c3ccccc3)cc2C4(CCC)CCC)cc1` (stereo not shown) [CE-1], the “Observed Solubility” value is “poor”.

Turning to `C=C(C)C(=O)OCCOC(=O)CCC(=O)N1CCN(c2ccc(C3(c4ccccc4)C=Cc4c5c(c6cc(N7CCCCC7)c(OC)cc6c4O3)-c3ccccc3C5(C)C)cc2)CC1` (stereo not shown) [CE-2], the “Observed Solubility” value is reported as “poor”.

Consider `C=C(C)C(=O)OCCOCCOCCOc1ccc(C2(c3ccccc3)C=Cc3c4c(c5cc(N6CCCCC6)c(OC)cc5c3O2)-c2ccc(-c3ccc([Si](C)(C)C)cc3)cc2C4(CCC)CCC)cc1` (stereo not shown) [Example 4, 6-methoxy-7-(piperidin-1-yl)-11-(4-trimethylsilylphenyl)-13,13-dipropyl-3-phenyl-3-(2-(2-(1-methacroylethoxy)ethoxy)ethoxy)phenyl-3H,13H-indeno[2′,3′: 3,4]naphtho[1,2-b]pyran], for which the “Observed Solubility” value is reported as “excellent”.

In the case of `C=C(C)C(=O)OCCOC(=O)CCC(=O)N1CCN(c2ccc(C3(c4ccccc4)C=Cc4c5c(c6cc(N7CCCCC7)c(OC)cc6c4O3)-c3ccc([Si](C)(C)C)cc3C5(C)C)cc2)CC1` (stereo not shown) [Example 5], the “Observed Solubility” value is “excellent”.
